The source of these data is BindingDB's records for doi:10.1016/s0960-894x(03)00639-5 (Instituto De Química Médica (Csic), 2003).

Where only a bound is given, the exact number is not on record here.

Assay [1] deals with Thymidine kinase (Herpes simplex virus 1). Kind of assay: Inhibitory concentration on phosphorylation of [methyl-3H]-dTh by HSV-1 Thymidine Kinase.
Assay [2] addresses Thymidine kinase 2, mitochondrial (Homo sapiens) (UniProt O00142). Kind of assay: Inhibitory concentration on phosphorylation of [methyl-3H]-dTh by human Thymidine Kinase 2.

Chain of Thymidine kinase 2, mitochondrial (Homo sapiens) (O00142 whole entry, looked up): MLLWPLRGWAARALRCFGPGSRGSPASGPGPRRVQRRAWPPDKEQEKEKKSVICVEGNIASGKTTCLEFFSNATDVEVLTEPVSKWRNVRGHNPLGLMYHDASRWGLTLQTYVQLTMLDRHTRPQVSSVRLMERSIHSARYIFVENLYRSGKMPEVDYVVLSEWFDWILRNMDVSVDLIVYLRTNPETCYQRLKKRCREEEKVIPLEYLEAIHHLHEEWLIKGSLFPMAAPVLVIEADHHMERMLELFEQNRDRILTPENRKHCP

One may read the IC50 as the concentration at which inhibition is half-maximal. A higher IC50 goes with weaker potency in that assay. On to `Cc1cn(C/C=C\CNCc2ccccc2)c(=O)[nH]c1=O` [1-(4-Benzylamino-but-2-enyl)-5-methyl-1H-pyrimidine-2,4-dione], for which the figures for the half-maximal inhibitory concentration (IC50) in assay [1] and in assay [2] were > 500 µM and 57 µM, respectively.
As to `Cc1cn(C/C=C\CN(Cc2ccccc2)Cc2ccccc2)c(=O)[nH]c1=O` [1-(4-Dibenzylamino-but-2-enyl)-5-methyl-1H-pyrimidine-2,4-dione], in assay [2], the half-maximal inhibitory concentration (IC50) turned out to be 3.5 µM.
`Cc1cn(C/C=C\CNC(=O)c2cccc(C(F)(F)F)c2)c(=O)[nH]c1=O` [N-[4-(5-Methyl-2,4-dioxo-3,4-dihydro-2H-pyrimidin-1-yl)-but-2-enyl]-3-trifluoromethyl-benzamide]: the IC50 was found to be 72 µM in assay [1] and 28 µM in assay [2].
